Laboratory results from PubChem BioAssay (NCI).
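GI50 marks 50% less growth. TGI: concentration producing complete growth inhibition.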

How the values were obtained:
Assay in all cases: inhibition of tumour cell growth, NCI panel, 384-well format
SK-MEL-28 melanoma = system: SK-MEL-28 melanoma
SF-539 CNS = system: SF-539 CNS
OVCAR-8 ovarian = system: OVCAR-8 ovarian
SNB-75 CNS = system: SNB-75 CNS
786-0 renal = system: 786-0 renal
RPMI-8226 leukemia = system: RPMI-8226 leukemia
NCI-H322M lung = system: NCI-H322M lung
SK-MEL-2 melanoma = system: SK-MEL-2 melanoma
TK-10 renal = system: TK-10 renal
HCT-15 colon = system: HCT-15 colon
NCI-H226 lung = system: NCI-H226 lung
HOP-62 NSCLC = system: HOP-62 NSCLC
CAKI-1 renal = system: CAKI-1 renal
NCI-H460 NSCLC = system: NCI-H460 NSCLC
MALME-3M melanoma = system: MALME-3M melanoma
SNB-19 CNS = system: SNB-19 CNS
MDA-MB-468 breast = system: MDA-MB-468 breast
NCI-H23 lung = system: NCI-H23 lung
OVCAR-3 ovarian = system: OVCAR-3 ovarian
SK-MEL-5 melanoma = system: SK-MEL-5 melanoma
SW-620 colon = system: SW-620 colon
COLO 205 colon = system: COLO 205 colon
MCF7 breast = system: MCF7 breast
HS 578T breast = system: HS 578T breast
SN12C renal = system: SN12C renal
HCT-116 colon = system: HCT-116 colon
MDA-MB-435 melanoma = system: MDA-MB-435 melanoma
A498 renal = system: A498 renal
EKVX NSCLC = system: EKVX NSCLC
NCI/ADR-RES ovarian = system: NCI/ADR-RES ovarian
M14 melanoma = system: M14 melanoma
T-47D breast = system: T-47D breast
UO-31 renal = system: UO-31 renal
HL-60(TB) leukemia = system: HL-60(TB) leukemia
CCRF-CEM leukemia = system: CCRF-CEM leukemia
OVCAR-4 ovarian = system: OVCAR-4 ovarian
MOLT-4 leukemia = system: MOLT-4 leukemia
MDA-MB-231 breast = system: MDA-MB-231 breast
A549 NSCLC = system: A549 NSCLC
BT-549 breast = system: BT-549 breast
HCC-2998 colon = system: HCC-2998 colon
KM12 colon = system: KM12 colon
SF-268 CNS = system: SF-268 CNS
HT29 colon = system: HT29 colon
PC-3 prostate = system: PC-3 prostate
ACHN renal = system: ACHN renal
LOX IMVI melanoma = system: LOX IMVI melanoma

## O=C(Nc1cccc(C(F)(F)F)c1)Nc1cc(S(=O)(=O)NC2CC2)ccc1-c1ccsc1
SK-MEL-28 melanoma
  GI50: 10.9 µM
  TGI: 22.9 µM
SF-539 CNS
  GI50: 5.91 µM
  TGI: 15 µM
OVCAR-8 ovarian
  GI50: 3.73 µM
  TGI: 13.4 µM
SNB-75 CNS
  GI50: 4.25 µM
  TGI: 15.6 µM
786-0 renal
  GI50: 4.09 µM
  TGI: 14.3 µM
RPMI-8226 leukemia
  GI50: 1.88 µM
  TGI: 3.36 µM
NCI-H322M lung
  GI50: 5.66 µM
  TGI: 17.2 µM
SK-MEL-2 melanoma
  GI50: 2.72 µM
  TGI: 6.07 µM
TK-10 renal
  GI50: 3.96 µM
  TGI: 14.1 µM
HCT-15 colon
  GI50: 3.49 µM
  TGI: 12.5 µM
NCI-H226 lung
  GI50: 4.75 µM
  TGI: 14.7 µM
HOP-62 NSCLC
  GI50: 3.98 µM
  TGI: 13.4 µM
CAKI-1 renal
  GI50: 3.59 µM
  TGI: 15.2 µM
NCI-H460 NSCLC
  GI50: 2.4 µM
  TGI: 5.08 µM
MALME-3M melanoma
  GI50: 6.91 µM
  TGI: 18.9 µM
SNB-19 CNS
  GI50: 4.51 µM
  TGI: 14.7 µM
MDA-MB-468 breast
  GI50: 1.96 µM
  TGI: 4.12 µM
NCI-H23 lung
  GI50: 2.83 µM
  TGI: 8.74 µM
OVCAR-3 ovarian
  GI50: 2.42 µM
  TGI: 5.79 µM
SK-MEL-5 melanoma
  GI50: 2.32 µM
  TGI: 5.61 µM
SW-620 colon
  GI50: 3.87 µM
  TGI: 13.9 µM
COLO 205 colon
  GI50: 5.12 µM
  TGI: 15.7 µM
MCF7 breast
  GI50: 3.68 µM
  TGI: 12.4 µM
HS 578T breast
  GI50: 2.87 µM
  TGI: 7.27 µM
SN12C renal
  GI50: 4.71 µM
  TGI: 17.6 µM
HCT-116 colon
  GI50: 3.17 µM
  TGI: 10.6 µM
MDA-MB-435 melanoma
  GI50: 6.53 µM
  TGI: 18.9 µM
A498 renal
  GI50: 2.86 µM
  TGI: 8.34 µM
EKVX NSCLC
  GI50: 4.79 µM
  TGI: 15.5 µM
NCI/ADR-RES ovarian
  GI50: 6.69 µM
  TGI: 18.3 µM
M14 melanoma
  GI50: 5.88 µM
  TGI: 16.7 µM
T-47D breast
  GI50: 2.62 µM
  TGI: 8.35 µM
UO-31 renal
  GI50: 4.17 µM
  TGI: 14.9 µM
HL-60(TB) leukemia
  GI50: 1.93 µM
  TGI: 3.52 µM
CCRF-CEM leukemia
  GI50: 2.4 µM
  TGI: 5.85 µM
OVCAR-4 ovarian
  GI50: 5.19 µM
  TGI: 17 µM
MOLT-4 leukemia
  GI50: 1.78 µM
  TGI: 3.35 µM
MDA-MB-231 breast
  GI50: 10.6 µM
  TGI: 23 µM
A549 NSCLC
  GI50: 4.02 µM
  TGI: 13.7 µM
BT-549 breast
  GI50: 7.6 µM
  TGI: 19.8 µM
HCC-2998 colon
  GI50: 5.7 µM
  TGI: 16.2 µM
KM12 colon
  GI50: 4.02 µM
  TGI: 12.7 µM
SF-268 CNS
  GI50: 4.84 µM
  TGI: 14.4 µM
HT29 colon
  GI50: 4.35 µM
  TGI: 14.9 µM
PC-3 prostate
  GI50: 3.92 µM
  TGI: 13.3 µM
ACHN renal
  GI50: 3.25 µM
  TGI: 11.9 µM
LOX IMVI melanoma
  GI50: 4.08 µM
  TGI: 13.1 µM

## CN(C)C(=O)c1cc2cnc(Nc3ccc(N4CCNCC4)cn3)nc2n1C1CCCC1
SK-MEL-28 melanoma
  GI50: 37.5 µM
  TGI: > 66 µM
SF-539 CNS
  GI50: 22.2 µM
  TGI: 68.2 µM
OVCAR-8 ovarian
  GI50: 37.5 µM
  TGI: 74.9 µM
SNB-75 CNS
  GI50: 24.5 µM
  TGI: 55 µM
786-0 renal
  GI50: 6.77 µM
  TGI: 36 µM
RPMI-8226 leukemia
  GI50: 0.607 µM
  TGI: 27.4 µM
NCI-H322M lung
  GI50: 21.3 µM
  TGI: 59.5 µM
SK-MEL-2 melanoma
  GI50: 16.8 µM
  TGI: 35.7 µM
TK-10 renal
  GI50: 27.3 µM
  TGI: > 100 µM
HCT-15 colon
  GI50: 28.8 µM
  TGI: > 75.4 µM
NCI-H226 lung
  GI50: 8.83 µM
  TGI: 58.1 µM
HOP-62 NSCLC
  GI50: 29.2 µM
  TGI: 67.6 µM
CAKI-1 renal
  GI50: 8.2 µM
  TGI: 63.6 µM
NCI-H460 NSCLC
  GI50: 12.3 µM
  TGI: > 61.5 µM
MALME-3M melanoma
  GI50: 11.1 µM
  TGI: 31.2 µM
SNB-19 CNS
  GI50: > 67.7 µM
  TGI: > 100 µM
MDA-MB-468 breast
  GI50: > 59.3 µM
  TGI: > 100 µM
NCI-H23 lung
  GI50: 25.3 µM
  TGI: 61.1 µM
OVCAR-3 ovarian
  GI50: 33.1 µM
  TGI: 61.7 µM
SK-MEL-5 melanoma
  GI50: 28 µM
  TGI: > 97.1 µM
SW-620 colon
  GI50: 9.02 µM
  TGI: > 65.6 µM
COLO 205 colon
  GI50: 7.64 µM
  TGI: 30.1 µM
MCF7 breast
  GI50: 23.3 µM
  TGI: 40.7 µM
HS 578T breast
  GI50: 33 µM
  TGI: > 58.5 µM
SN12C renal
  GI50: 20.3 µM
  TGI: > 73.2 µM
HCT-116 colon
  GI50: 7.55 µM
  TGI: 23.5 µM
MDA-MB-435 melanoma
  GI50: 52.2 µM
  TGI: > 100 µM
A498 renal
  GI50: 23.9 µM
  TGI: 45.1 µM
EKVX NSCLC
  GI50: 30.1 µM
  TGI: > 73 µM
NCI/ADR-RES ovarian
  GI50: > 100 µM
  TGI: > 100 µM
M14 melanoma
  GI50: 30.2 µM
  TGI: > 89.2 µM
T-47D breast
  GI50: 9.8 µM
  TGI: > 46.4 µM
UO-31 renal
  GI50: 13.8 µM
  TGI: > 100 µM
HL-60(TB) leukemia
  GI50: 0.866 µM
  TGI: 26.3 µM
CCRF-CEM leukemia
  GI50: 2.39 µM
  TGI: > 34.4 µM
OVCAR-4 ovarian
  GI50: 30.4 µM
  TGI: > 94 µM
MOLT-4 leukemia
  GI50: 0.73 µM
  TGI: 6.31 µM
MDA-MB-231 breast
  GI50: 4.09 µM
  TGI: 33.7 µM
A549 NSCLC
  GI50: 23.5 µM
  TGI: > 84.1 µM
BT-549 breast
  GI50: 20.2 µM
  TGI: 58.9 µM
HCC-2998 colon
  GI50: 29.2 µM
  TGI: > 100 µM
KM12 colon
  GI50: 2.51 µM
  TGI: 35.5 µM
SF-268 CNS
  GI50: 24.8 µM
  TGI: 46.6 µM
HT29 colon
  GI50: 24.9 µM
  TGI: > 51.6 µM
PC-3 prostate
  GI50: 17.8 µM
  TGI: > 80.5 µM
ACHN renal
  GI50: 5.81 µM
  TGI: 46.7 µM
LOX IMVI melanoma
  GI50: 8.51 µM
  TGI: 47.9 µM
